Test results from patent US20110293727A1, “CHIMERIC THERAPEUTICS, COMPOSITIONS, AND METHODS FOR USING SAME” (priority 2008, published 2011).

Test system: inhibitory dsRNA
Assay: K9 protein-RNA complex by electrophoresis of labeled inhibitory dsRNA and K9 protein
Type: binding
Details: 4 M Urea, 10 mM Hepes, pH 8.15; 1.5% agarose gel; FIG. 5
Description: Inhibitory dsRNA 3′-labeled with Dy547 is purchased from Dharmacon (Lafayette, Colo.). Labeled and unlabeled inhibitory dsRNA solutions are diluted to 4 μM in 4 M Urea, 10 mM Hepes, pH 8.15. […] Labeled and unlabeled protein solutions are diluted to 3 μM in 4M Urea.
Labeled and unlabeled RNA and protein are used in separate binding reactions. Samples are run on a 1.5% TAE-agarose gel for 35 minutes at 110 volts.
A typhoon phosphoimager(GE) is used to visualize the cy5-only, DY547-only and cy5/DY547 labeled RNA protein complexes. Filters are employed to separately detect Dy547 (FIG. 5A) and cy5 (FIG. 5B) fluorescent labels. To image all fluorescence on the gel, cy5-filtered and dy547-filtered images are overlayed (FIG. 5C).

K9: modified HBV core protein (contains E77C), 9-lysine C-terminal tail, His tag, SEQ ID NO: 10 [Mutant K9]
complex formation of K9 protein with inhibitory dsRNA (shifted band): form a complex in solution
